One assay deals with GST-Bcl-2 (Homo sapiens, UniProt P10415). Kind of assay: TR-FRET binding assay, GST-Bcl-2 with F-Bak peptide probe. Conditions: TR-FRET Binding Affinity, GST-Bcl-2, F-Bak peptide probe. In short, it runs like this:
(§1)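 Displacement of a fluorescein-labelled Bak peptide from the GST-tagged protein was followed by time-resolved FRET with a terbium anti-GST donor after 3 h incubation at room temperature. Inhibition constants were calculated with Wang's equation.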

The subject of the next assay is FL5.12/Bcl-2 cells. Kind of assay: FL5.12/Bcl-2 cell viability assay under IL-3 withdrawal (CellTitre Glo). The class given is cell-based, murine. Conditions: Mus musculus, IL-3 withdrawn 48 hrs, then 24 hrs with compound. In short, it runs like this:
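Murine IL-3-dependent FL5.12 cells stably overexpressing Bcl-2 were deprived of IL-3 (WEHI-3B conditioned medium) for 48 h, then exposed to various compound concentrations for 24 h at 37 °C. Viability read by CellTiter-Glo luminescence.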

In the next assay the target is GST-Bcl-XL (Homo sapiens, UniProt Q07817). Nature of the assay: TR-FRET binding assay, GST-Bcl-XL with F-Bak peptide probe. Conditions: TR-FRET Binding Affinity, GST-Bcl-XL, F-Bak peptide probe. In short, it runs like this:
as §1
Background: In TR-FRET formats the signal depends on donor and acceptor labels being close together.

A value given as a limit tells only on which side of the number the result lay.

Chain of GST-Bcl-2 (P10415 whole entry): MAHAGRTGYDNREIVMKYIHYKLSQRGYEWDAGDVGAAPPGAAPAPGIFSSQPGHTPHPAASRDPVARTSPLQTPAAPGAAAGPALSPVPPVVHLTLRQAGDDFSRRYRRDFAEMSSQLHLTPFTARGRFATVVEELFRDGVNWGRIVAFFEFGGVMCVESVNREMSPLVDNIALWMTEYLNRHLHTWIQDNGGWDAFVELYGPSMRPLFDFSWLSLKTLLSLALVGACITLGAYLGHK
Chain of GST-Bcl-XL (Q07817 whole entry): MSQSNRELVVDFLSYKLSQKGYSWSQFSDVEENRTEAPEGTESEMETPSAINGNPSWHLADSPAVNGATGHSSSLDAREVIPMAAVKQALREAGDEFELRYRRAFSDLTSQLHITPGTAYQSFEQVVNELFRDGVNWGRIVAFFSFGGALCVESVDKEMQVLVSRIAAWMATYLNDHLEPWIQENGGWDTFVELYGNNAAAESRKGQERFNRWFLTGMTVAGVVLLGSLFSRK

As to `CC1(C)CCC(CN2CCN(c3ccc(C(=O)NS(=O)(=O)c4cnc(OCC5CCOCC5)c(-c5nccs5)c4)c(Oc4ccc5[nH]ccc5c4)c3)CC2)=C(c2ccc(Cl)cc2)C1` [Example 331, 4-(4-{[2-(4-chlorophenyl)-4,4-dimethylcyclohex-1-en-1-yl]methyl}piperazin-1-yl)-2-(1H-indol-5-yloxy)-N-{[6-(tetrahydro-2H-pyran-4-ylmethoxy)-5-(1,3-thiazol-2-yl)pyridin-3-yl]sulfonyl}benzamide], the Ki (as a rule, the equilibrium dissociation constant of an inhibitor or competing ligand from its target) on GST-Bcl-2 is 8.27 nM; at GST-Bcl-XL it was greater than 660 nM. The EC50 (as a rule, the concentration giving half of the maximal effect) with FL5.12/Bcl-2 cells was greater than 500 nM.
The matching figures for `COCCNC(=O)c1ccc(S(=O)(=O)NC(=O)c2ccc(N3CCN(CC4=C(c5ccc(Cl)cc5)CC(C)(C)CC4)CC3)cc2Oc2ccc3[nH]ccc3c2)cc1` [Example 332, 4-(4-{[2-(4-chlorophenyl)-4,4-dimethylcyclohex-1-en-1-yl]methyl}piperazin-1-yl)-2-(1H-indol-5-yloxy)-N-[(4-{[(2-methoxyethyl)amino]carbonyl}phenyl)sulfonyl]benzamide]: 12.6 nM, greater than 660 nM and greater than 500 nM.
The matching figures for `CC1(C)CCC(CN2CCN(c3ccc(C(=O)NS(=O)(=O)c4cnc(OCC5CCOCC5)c(C#N)c4)c(Oc4ccc5[nH]ccc5c4)c3)CC2)=C(c2ccc(Cl)cc2)C1` [Example 333, 4-(4-{[2-(4-chlorophenyl)-4,4-dimethylcyclohex-1-en-1-yl]methyl}piperazin-1-yl)-N-{[5-cyano-6-(tetrahydro-2H-pyran-4-ylmethoxy)pyridin-3-yl]sulfonyl}-2-(1H-indol-5-yloxy)benzamide]: 0.089 nM, greater than 660 nM and 109 nM.
As for `CC(=O)N1CCC(Nc2ccc(S(=O)(=O)NC(=O)c3ccc(N4CCN(CC5=C(c6ccc(Cl)cc6)CC(C)(C)CC5)CC4)cc3Oc3ccc4[nH]ccc4c3)cc2[N+](=O)[O-])CC1` [Example 334, N-({4-[(1-acetylpiperidin-4-yl)amino]-3-nitrophenyl}sulfonyl)-4-(4-{[2-(4-chlorophenyl)-4,4-dimethylcyclohex-1-en-1-yl]methyl}piperazin-1-yl)-2-(1H-indol-5-yloxy)benzamide], the Ki was 0.179 nM at GST-Bcl-2 and greater than 660 nM at GST-Bcl-XL. Also, the EC50 with FL5.12/Bcl-2 cells was 65.9 nM.
On to `CC1(C)CCC(CN2CCN(c3ccc(C(=O)NS(=O)(=O)c4ccc(NC5CCN(S(C)(=O)=O)CC5)c([N+](=O)[O-])c4)c(Oc4ccc5[nH]ccc5c4)c3)CC2)=C(c2ccc(Cl)cc2)C1` [Example 335, 4-(4-{[2-(4-chlorophenyl)-4,4-dimethylcyclohex-1-en-1-yl]methyl}piperazin-1-yl)-2-(1H-indol-5-yloxy)-N-[(4-{[1-(methylsulfonyl)piperidin-4-yl]amino}-3-nitrophenyl)sulfonyl]benzamide], for which the results for the Ki at GST-Bcl-2 and on GST-Bcl-XL were 0.438 nM and greater than 660 nM, respectively. Further, in the assay on FL5.12/Bcl-2 cells, the EC50 came to 39 nM.
The matching figures for `CC1(C)CCC(CN2CCN(c3ccc(C(=O)NS(=O)(=O)c4ccc(NCC5COCCO5)c([N+](=O)[O-])c4)c(Oc4ccc5[nH]ccc5c4)c3)CC2)=C(c2ccc(Cl)cc2)C1` (stereo not drawn) [Example 336, 4-(4-{[2-(4-chlorophenyl)-4,4-dimethylcyclohex-1-en-1-yl]methyl}piperazin-1-yl)-N-({4-[(1,4-dioxan-2-ylmethyl)amino]-3-nitrophenyl}sulfonyl)-2-(1H-indol-5-yloxy)benzamide]: 0.105 nM, 242 nM and 7.49 nM.
For the molecule `CC(=O)N1CCC(Nc2ccc(S(=O)(=O)NC(=O)c3ccc(N4CCN(CC5=C(c6ccc(Cl)cc6)CC(C)(C)CC5)CC4)cc3Oc3cccc4[nH]ccc34)cc2[N+](=O)[O-])CC1` [Example 337, N-({4-[(1-acetylpiperidin-4-yl)amino]-3-nitrophenyl}sulfonyl)-4-(4-{[2-(4-chlorophenyl)-4,4-dimethylcyclohex-1-en-1-yl]methyl}piperazin-1-yl)-2-(1H-indol-4-yloxy)benzamide], the Ki on GST-Bcl-2 is 0.535 nM; at GST-Bcl-XL, greater than 660 nM. Further, in the assay with FL5.12/Bcl-2 cells, the EC50 was 124 nM.
Regarding `CC1(C)CCC(CN2CCN(c3ccc(C(=O)NS(=O)(=O)c4ccc(NC5CCN(S(C)(=O)=O)CC5)c([N+](=O)[O-])c4)c(Oc4cccc5[nH]ccc45)c3)CC2)=C(c2ccc(Cl)cc2)C1` [Example 338, 4-(4-{[2-(4-chlorophenyl)-4,4-dimethylcyclohex-1-en-1-yl]methyl}piperazin-1-yl)-2-(1H-indol-4-yloxy)-N-[(4-{[1-(methylsulfonyl)piperidin-4-yl]amino}-3-nitrophenyl)sulfonyl]benzamide], the Ki at GST-Bcl-2 was 0.403 nM; on GST-Bcl-XL it was greater than 660 nM. In addition, the EC50 in the assay with FL5.12/Bcl-2 cells was found to be 71.1 nM.
Consider `O=C(NS(=O)(=O)c1ccc(NCC2CCOCC2)c([N+](=O)[O-])c1)c1ccc(N2CCN(Cc3ccc(C(F)(F)F)cc3-c3ccc(Cl)cc3)CC2)cc1Oc1ccc2[nH]ccc2c1` [Example 339, 4-(4-{[4′-chloro-5-(trifluoromethyl)-1,1′-biphenyl-2-yl]methyl}piperazin-1-yl)-2-(1H-indol-5-yloxy)-N-({3-nitro-4-[(tetrahydro-2H-pyran-4-ylmethyl)amino]phenyl}sulfonyl)benzamide], for which the Ki at GST-Bcl-2 is 14.1 nM; on GST-Bcl-XL, greater than 660 nM. Moreover, in the assay with FL5.12/Bcl-2 cells, the EC50 is greater than 500 nM.
On to `O=C(NS(=O)(=O)c1ccc(OCC2CCOCC2)c([N+](=O)[O-])c1)c1ccc(N2CCN(Cc3ccc(C(F)(F)F)cc3-c3ccc(Cl)cc3)CC2)cc1Oc1ccc2[nH]ccc2c1` [Example 340, 4-(4-{[4′-chloro-5-(trifluoromethyl)-1,1′-biphenyl-2-yl]methyl}piperazin-1-yl)-2-(1H-indol-5-yloxy)-N-{[3-nitro-4-(tetrahydro-2H-pyran-4-ylmethoxy)phenyl]sulfonyl}benzamide], for which the Ki is 7.59 nM on GST-Bcl-2 and greater than 660 nM at GST-Bcl-XL. The EC50 with FL5.12/Bcl-2 cells is greater than 500 nM.
The matching figures for `CC(C)(C)c1ccc(CN2CCN(c3ccc(C(=O)NS(=O)(=O)c4ccc(NCC5CCOCC5)c([N+](=O)[O-])c4)c(Oc4ccc5[nH]ccc5c4)c3)CC2)c(-c2ccc(Cl)cc2)c1` [Example 341, 4-{4-[(5-tert-butyl-4′-chloro-1,1′-biphenyl-2-yl)methyl]piperazin-1-yl}-2-(1H-indol-5-yloxy)-N-({3-nitro-4-[(tetrahydro-2H-pyran-4-ylmethyl)amino]phenyl}sulfonyl)benzamide]: 13 nM, greater than 660 nM and greater than 500 nM.
The matching figures for `CC(C)(C)c1ccc(CN2CCN(c3ccc(C(=O)NS(=O)(=O)c4ccc(OCC5CCOCC5)c([N+](=O)[O-])c4)c(Oc4ccc5[nH]ccc5c4)c3)CC2)c(-c2ccc(Cl)cc2)c1` [Example 342, 4-{4-[(5-tert-butyl-4′-chloro-1,1′-biphenyl-2-yl)methyl]piperazin-1-yl}-2-(1H-indol-5-yloxy)-N-{[3-nitro-4-(tetrahydro-2H-pyran-4-ylmethoxy)phenyl]sulfonyl}benzamide]: 25.8 nM, greater than 660 nM and greater than 500 nM.
For `CC1(C)CCC(CN2CCN(c3ccc(C(=O)NS(=O)(=O)c4ccc(NCC(F)(F)F)c([N+](=O)[O-])c4)c(Oc4cccc5[nH]ccc45)c3)CC2)=C(c2ccc(Cl)cc2)C1` [Example 343, 4-(4-{[2-(4-chlorophenyl)-4,4-dimethylcyclohex-1-en-1-yl]methyl}piperazin-1-yl)-2-(1H-indol-4-yloxy)-N-({3-nitro-4-[(2,2,2-trifluoroethyl)amino]phenyl}sulfonyl)benzamide], the Ki on GST-Bcl-2 was 0.576 nM; at GST-Bcl-XL it was greater than 660 nM. In addition, the EC50 with FL5.12/Bcl-2 cells was 54.9 nM.
With `CC1(C)CCC(CN2CCN(c3ccc(C(=O)NS(=O)(=O)c4ccc(NCC(F)(F)F)c([N+](=O)[O-])c4)c(Oc4ccc5[nH]ccc5c4)c3)CC2)=C(c2ccc(Cl)cc2)C1` [Example 344, 4-(4-{[2-(4-chlorophenyl)-4,4-dimethylcyclohex-1-en-1-yl]methyl}piperazin-1-yl)-2-(1H-indol-5-yloxy)-N-({3-nitro-4-[(2,2,2-trifluoroethyl)amino]phenyl}sulfonyl)benzamide], the Ki at GST-Bcl-2 stood at 0.284 nM; on GST-Bcl-XL, 447 nM. Also, the EC50 with FL5.12/Bcl-2 cells worked out at 71.5 nM.
The matching figures for `CC1(C)CCC(CN2CCN(c3ccc(C(=O)NS(=O)(=O)c4cccc(C(=O)NCC5CCOCC5)c4)c(Oc4ccc5[nH]ccc5c4)c3)CC2)=C(c2ccc(Cl)cc2)C1` [Example 345, 4-(4-{[2-(4-chlorophenyl)-4,4-dimethylcyclohex-1-en-1-yl]methyl}piperazin-1-yl)-2-(1H-indol-5-yloxy)-N-[(3-{[(tetrahydro-2H-pyran-4-ylmethyl)amino]carbonyl}phenyl)sulfonyl]benzamide]: 1.15 nM, greater than 660 nM and greater than 500 nM.
As for `CC1(C)CCC(CN2CCN(c3ccc(C(=O)NS(=O)(=O)c4ccc(OC[C@H]5COCCO5)c([N+](=O)[O-])c4)c(Oc4ccc5[nH]ccc5c4)c3)CC2)=C(c2ccc(Cl)cc2)C1` [Example 346, 4-(4-{[2-(4-chlorophenyl)-4,4-dimethylcyclohex-1-en-1-yl]methyl}piperazin-1-yl)-N-({4-[(2R)-1,4-dioxan-2-ylmethoxy]-3-nitrophenyl}sulfonyl)-2-(1H-indol-5-yloxy)benzamide], the results for the Ki on GST-Bcl-2 and on GST-Bcl-XL were 0.018 nM and 204 nM, respectively. The EC50 with FL5.12/Bcl-2 cells was 17.5 nM.
